The values below come from patent US20250145665A1, “MACROCYCLIC PEPTIDES USEFUL AS MODULATORS OF TNF ALPHA” (Bristol-Myers Squibb Company, priority 2023, published 2025).

The structures appear in SMILES notation. Positions of bridges follow the written chain, without caps; N, C: chain ends. Non-standard residues stand in square brackets, D forms with d. Residues, ends and D or L forms follow the SMILES beside them. Ala(morpholin-4-yl) = N[C@@H](CN1CCOCC1)C(=O)O; Phe(4-CH2NH2) = NCc1ccc(C[C@H](N)C(=O)O)cc1; Bip = N[C@@H](Cc1ccc(-c2ccccc2)cc1)C(=O)O; Phe(4-NH2) = Nc1ccc(C[C@H](N)C(=O)O)cc1; Phe(4-F) = N[C@@H](Cc1ccc(F)cc1)C(=O)O; Phe(2-F) = N[C@@H](Cc1ccccc1F)C(=O)O; Val(3-OH) = CC(C)(O)[C@H](N)C(=O)O; 3Pal = N[C@@H](Cc1cccnc1)C(=O)O; Sar = CNCC(=O)O

The target of this experiment is TNFα (Homo sapiens, UniProt P01375). The experiment can be described thus: TNF-Induced HEK-Blue Assay. It counts as cell-based. The conditions noted are these: HEK-Blue-CD40L cells, NF-kB-driven secreted alkaline phosphatase reporter; TNFα 0.5 ng/ml; 18 h; read-out: TNF induced HEK-Blue assay IC50 value.
TNFα, sequence (P01375 77-233 limits assumed): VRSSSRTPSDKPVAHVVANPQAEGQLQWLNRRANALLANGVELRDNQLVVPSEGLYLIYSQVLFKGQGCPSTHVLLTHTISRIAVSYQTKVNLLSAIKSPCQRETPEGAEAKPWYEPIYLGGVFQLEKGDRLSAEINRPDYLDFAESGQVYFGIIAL
A word on the IC50: it is the concentration that inhibits the measured activity by half. `CC(C)C[C@@H]1NC(=O)[C@H](CCCNC(=N)N)NC(=O)[C@H](C(C)C)NC(=O)[C@@H]2CCCN2C(=O)[C@H](Cc2cccnc2)NC(=O)[C@H](CCCNC(=N)N)NC(=O)[C@H](CC(=O)O)NC(=O)[C@@H]2CCCN2C(=O)CN(C)C(=O)[C@H](Cc2ccc(-c3ccccc3)cc2)NC(=O)[C@H](Cc2ccc(-c3ccccc3)cc2)NC(=O)[C@H](CN2CCOCC2)NC(=O)CSC[C@@H](C(=O)NCC(N)=O)NC1=O` [Example 54] ({CH2CO}-[Ala(morpholin-4-yl)][Bip][Bip][Sar]PDR[3Pal]PVRLCG-NH2; thioether N-13): the IC50 lay in the range of 50 to 200 nM. As to `CC(C)C[C@@H]1NC(=O)[C@H](CCCNC(=N)N)NC(=O)[C@H](C(C)C)NC(=O)[C@@H]2CCCN2C(=O)[C@H](Cc2ccc(N)cc2)NC(=O)[C@H](CCCNC(=N)N)NC(=O)[C@H](CC(=O)O)NC(=O)[C@@H]2CCCN2C(=O)CN(C)C(=O)[C@H](Cc2ccc(-c3ccccc3)cc2)NC(=O)[C@H](Cc2ccc(-c3ccccc3)cc2)NC(=O)[C@H](CN2CCOCC2)NC(=O)CSC[C@@H](C(=O)NCC(N)=O)NC1=O` [Example 55] ({CH2CO}-[Ala(morpholin-4-yl)][Bip][Bip][Sar]PDR[Phe(4-NH2)]PVRLCG-NH2; thioether N-13), the IC50 fell in the range of 50 to 200 nM.

Turning to `CC(C)C[C@@H]1NC(=O)[C@H](CCCNC(=N)N)NC(=O)[C@H](C(C)C)NC(=O)[C@@H]2CCCN2C(=O)[C@H](Cc2ccc(O)cc2)NC(=O)[C@H](CCCNC(=N)N)NC(=O)[C@H](CC(=O)O)NC(=O)[C@@H]2CCCN2C(=O)CN(C)C(=O)[C@H](Cc2ccc(-c3ccccc3)cc2)NC(=O)[C@H](Cc2ccc(-c3ccccc3)cc2)NC(=O)[C@H](CN2CCOCC2)NC(=O)CSC[C@@H](C(=O)NCC(N)=O)NC1=O` [Example 56] ({CH2CO}-[Ala(morpholin-4-yl)][Bip][Bip][Sar]PDRYPVRLCG-NH2; thioether N-13), the IC50 fell in the range of 50 to 200 nM. As to `CC(C)C[C@@H]1NC(=O)[C@H](CCCNC(=N)N)NC(=O)[C@H](C(C)C)NC(=O)[C@@H]2CCCN2C(=O)[C@H](Cc2ccc(CN)cc2)NC(=O)[C@H](CCCNC(=N)N)NC(=O)[C@H](CC(=O)O)NC(=O)[C@@H]2CCCN2C(=O)CN(C)C(=O)[C@H](Cc2ccc(-c3ccccc3)cc2)NC(=O)[C@H](Cc2ccc(-c3ccccc3)cc2)NC(=O)[C@H](C(C)(C)O)NC(=O)CSC[C@@H](C(=O)NCC(N)=O)NC1=O` [Example 57] ({CH2CO}-[Val(3-OH)][Bip][Bip][Sar]PDR[Phe(4-CH2NH2)]PVRLCG-NH2; thioether N-13), the concentration for half-maximal inhibition (IC50) lay within 50 to 200 nM. The figure for `CC(C)C[C@@H]1NC(=O)[C@H](CCCNC(=N)N)NC(=O)[C@H](C(C)C)NC(=O)[C@@H]2CCCN2C(=O)[C@H](Cc2ccc(F)cc2)NC(=O)[C@H](CCCNC(=N)N)NC(=O)[C@H](CC(=O)O)NC(=O)[C@@H]2CCCN2C(=O)CN(C)C(=O)[C@H](Cc2ccc(-c3ccccc3)cc2)NC(=O)[C@H](Cc2ccc(-c3ccccc3)cc2)NC(=O)[C@H](C(C)(C)O)NC(=O)CSC[C@@H](C(=O)NCC(N)=O)NC1=O` [Example 58] ({CH2CO}-[Val(3-OH)][Bip][Bip][Sar]PDR[Phe(4-F)]PVRLCG-NH2; thioether N-13) is 50 to 200 nM; for `CC(C)C[C@@H]1NC(=O)[C@H](CCCNC(=N)N)NC(=O)[C@H](C(C)C)NC(=O)[C@@H]2CCCN2C(=O)[C@H](Cc2ccccc2F)NC(=O)[C@H](CCCNC(=N)N)NC(=O)[C@H](CC(=O)O)NC(=O)[C@@H]2CCCN2C(=O)CN(C)C(=O)[C@H](Cc2ccc(-c3ccccc3)cc2)NC(=O)[C@H](Cc2ccc(-c3ccccc3)cc2)NC(=O)[C@H](C(C)(C)O)NC(=O)CSC[C@@H](C(=O)NCC(N)=O)NC1=O` [Example 59] ({CH2CO}-[Val(3-OH)][Bip][Bip][Sar]PDR[Phe(2-F)]PVRLCG-NH2; thioether N-13) it is 200 to 2000 nM.
